IC50 data for 44 compounds are collected here from patent publication US8883826B2, “Alkynyl derivatives as modulators of metabotropic glutamate receptors” (Addex Pharma SA, priority 2004, dated 2014).

The target of the experiment is T1, mGluR5 (Rattus norvegicus, UniProt P31424).
T1 construct: tissue Charles River Laboratories; host or cells: rat brain cortex membranes (Sprague-Dawley)
T1 sequence (P31424 21-1203): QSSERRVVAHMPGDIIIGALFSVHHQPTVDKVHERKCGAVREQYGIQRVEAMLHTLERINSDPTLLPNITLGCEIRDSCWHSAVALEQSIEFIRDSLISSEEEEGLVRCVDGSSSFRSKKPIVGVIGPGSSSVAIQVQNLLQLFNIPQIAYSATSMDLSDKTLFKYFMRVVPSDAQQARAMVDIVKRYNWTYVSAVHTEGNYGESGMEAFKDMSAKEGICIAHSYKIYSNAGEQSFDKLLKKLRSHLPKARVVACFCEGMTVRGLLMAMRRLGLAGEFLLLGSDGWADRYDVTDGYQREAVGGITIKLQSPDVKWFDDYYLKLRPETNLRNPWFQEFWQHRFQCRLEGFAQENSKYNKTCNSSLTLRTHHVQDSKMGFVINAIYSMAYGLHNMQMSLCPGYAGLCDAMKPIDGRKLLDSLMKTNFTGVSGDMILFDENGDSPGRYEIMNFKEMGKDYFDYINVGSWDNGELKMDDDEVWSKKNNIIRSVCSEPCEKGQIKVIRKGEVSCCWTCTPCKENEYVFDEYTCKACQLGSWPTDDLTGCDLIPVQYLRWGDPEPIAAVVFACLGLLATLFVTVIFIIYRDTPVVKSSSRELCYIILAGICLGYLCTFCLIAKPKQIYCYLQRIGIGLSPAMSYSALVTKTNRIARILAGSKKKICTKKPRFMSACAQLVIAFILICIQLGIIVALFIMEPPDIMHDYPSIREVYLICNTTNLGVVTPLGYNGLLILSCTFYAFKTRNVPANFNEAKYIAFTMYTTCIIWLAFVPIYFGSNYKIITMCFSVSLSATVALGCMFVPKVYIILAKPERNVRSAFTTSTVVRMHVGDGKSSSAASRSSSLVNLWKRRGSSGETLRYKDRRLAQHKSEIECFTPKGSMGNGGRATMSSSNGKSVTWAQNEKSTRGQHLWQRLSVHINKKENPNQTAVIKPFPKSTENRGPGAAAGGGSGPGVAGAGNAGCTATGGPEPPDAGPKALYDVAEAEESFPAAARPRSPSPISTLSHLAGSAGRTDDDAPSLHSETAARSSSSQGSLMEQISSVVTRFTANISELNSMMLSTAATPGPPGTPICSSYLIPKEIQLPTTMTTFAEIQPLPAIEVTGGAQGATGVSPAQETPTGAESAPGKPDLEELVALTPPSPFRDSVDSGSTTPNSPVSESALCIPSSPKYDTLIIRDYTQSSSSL
In words: mGluR5 binding assay ([3H]-MPEP radioligand competition). As to conditions: competition with 3 nM [3H]-MPEP, rat brain cortical membranes, 1 h at 4 °C; mean of at least three independent experiments in duplicate. An excerpt:
Activity of compounds of the invention was examined following a radioligand binding technique using whole rat brain and tritiated 2-methyl-6-(phenylethynyl)-pyridine ([^3H]-MPEP) as a ligand following similar methods than those described in F. Gasparini et al. Bioorg. Med. Chem. Lett. 2002, 12, 407-409 and in J. F. Anderson et al. J. Pharmacol. Exp. Ther. 2002, 303, 3, 1044-1051.
Cortices were dissected out from brains of 200-300 g Sprague-Dawley rats (Charles River Laboratories, L'Arbresle, France). Tissues were homogenized in 10 volumes (vol/wt) of ice-cold 50 mM Hepes-NaOH (pH 7.4) using a Polytron disrupter (Kinematica AG, Luzern, Switzerland) and centrifuged for 30 min at 40,000 g. (4° C.). The supernatant was discarded and the pellet washed twice by resuspension in 10 volumes 50 mM HEPES-NaOH. Membranes were then collected by centrifugation and washed before final resuspension in 10 volumes of 20 mM HEPES-NaOH, pH 7.4. Protein concentration was determined by the Bradford method (Bio-Rad protein assay, Reinach, Switzerland) with bovine serum albumin as standard.
[^3H]-MPEP Binding Experiments:
Membranes were thawed and resuspended in binding buffer containing 20 mM HEPES-NaOH, 3 mM MgCl2, 3 mM CaCl2, 100 mM NaCl, pH 7.4. Competition studies were carried out by incubating for 1 h at 4° C.: 3 nM [^3H]-MPEP (39 Ci/mmol, Tocris, Cookson Ltd, Bristol, U.K.), 50 μg membrane and a concentration range of 0.003 nM-30 μM of compounds, for a total reaction volume of 300 μl. The non-specific binding was defined using 30 μM MPEP. Reaction was terminated by rapid filtration over glass-fiber filter plates (Unifilter 96-well GF/B filter plates, Perkin-Elmer, Schwerzenbach, Switzerland) using 4×400 μl ice cold buffer using cell harvester (Filtermate, Perkin-Elmer, Downers Grove, USA). Radioactivity was determined by liquid scintillation spectrometry using a 96-well plate reader (TopCount, Perkin-Elmer, Downers Grove, USA).
The inhibition curves were generated using the Prism GraphPad program (Graph Pad Software Inc, San Diego, USA). IC50 determinations were made from data obtained from 8 point-concentration response curves using a non linear regression analysis.
The table below represents the mean of IC50 obtained from at least three independent experiments of selected molecules performed in duplicate.
For the compound “2-(4-(3-Methyl-4-phenyl-1H-pyrazol-1-yl)but-1-ynyl)pyridine and 2-(4-(5-methyl-4-phenyl-1H-pyrazol-1-yl)but-1-ynyl)pyridine [Example 174]”, the concentration for half-maximal inhibition (IC50) is less than 10 µM.
The value for `Cc1nc(C#CCCc2ccccc2)cs1` [Example 1, 2-Methyl-(4-(4-phenyl)but-1-ynyl)thiazole] was less than 0.5 µM; that for `CCc1ccccc1-c1noc(CCC#Cc2ccccn2)n1` [Example 2, 2-(4-(3-(2-Ethylphenyl)-1,2,4-oxadiazol-5-yl)but-1-ynyl)pyridine] was less than 10 µM; that for `O=C1c2ccccc2C(=O)N1CCC#Cc1ccccn1` [Example 3, 2-(4-(Pyridin-2-yl)but-3-ynyl)isoindoline-1,3-dione] was less than 10 µM.
The value for `O=c1c2ccccc2cnn1CCC#Cc1ccccn1` [Example 4, 2-(4-(Pyridin-2-yl)but-3-ynyl)phthalazin-1(2H)-one] was less than 10 µM.
`C(#Cc1ccc2ccccc2n1)CCc1ccccc1` [Example 5, 2-(4-Phenylbut-1-ynyl)quinoline] showed an IC50 of less than 10 µM.
The compound `C(#Cc1nc2ccccc2o1)CCc1ccccc1` [Example 7, 2-(4-Phenylbut-1-ynyl)benzo[d]oxazole] had an IC50 of less than 0.5 µM.
`Fc1ccc(-c2noc(CCC#Cc3ccccn3)n2)cc1` [Example 9, 2-(4-(3-(4-Fluorophenyl)-1,2,4-oxadiazol-5-yl)but-1-ynyl)pyridine] came in with an IC50 of less than 10 µM.
As for `C(#Cc1ccccn1)CCc1nc(-c2ccccc2)no1` [Example 10], the half-inhibitory concentration (IC50) was less than 10 µM.
Regarding `CN(C(=O)CCC#Cc1ccccn1)c1ccc(F)cc1` [Example 13, N-(4-Fluorophenyl)-N-methyl-5-(pyridin-2-yl)pent-4-ynamide], the IC50 was less than 0.5 µM.
`C(#Cc1ccccn1)CCc1csc(-c2ccccc2)n1` [Example 14, 2-(4-(2-Phenylthiazol-4-yl)but-1-ynyl)pyridine]: the IC50 is less than 10 µM.
Regarding `Cc1ccccc1-c1noc(CCC#Cc2ccccn2)n1` [Example 15], the IC50 was less than 0.5 µM.
Compound `C(#Cc1ccccn1)CCc1nc(Cc2ccccc2)no1` [Example 16, 2-(4-(3-Benzyl-1,2,4-oxadiazol-5-yl)but-1-ynyl)pyridine] gave an IC50 of less than 10 µM.
For `Fc1ccccc1Cc1noc(CCC#Cc2ccccn2)n1` [Example 17, 2-(4-(3-(2-Fluorobenzyl)-1,2,4-oxadiazol-5-yl)but-1-ynyl)pyridine] the value was less than 10 µM; for `Cc1ccccc1Cc1noc(CCC#Cc2ccccn2)n1` [Example 18, 2-(4-(3-(2-Methylbenzyl)-1,2,4-oxadiazol-5-yl)but-1-ynyl)pyridine], less than 10 µM; for `Fc1ccc(Cc2noc(CCC#Cc3ccccn3)n2)cc1` [Example 19, 2-(4-(3-(4-Fluorobenzyl)-1,2,4-oxadiazol-5-yl)but-1-ynyl)pyridine], less than 10 µM.
As to `COc1ccc(Cc2noc(CCC#Cc3ccccn3)n2)cc1` [Example 20, 2-(4-(3-(4-Methoxybenzyl)-1,2,4-oxadiazol-5-yl)but-1-ynyl)pyridine], the IC50 is less than 10 µM.
In turn, `CC(C)c1noc(CCC#Cc2ccccn2)n1` [Example 21, 2-(4-(3-Isopropyl-1,2,4-oxadiazol-5-yl)but-1-ynyl)pyridine] showed an IC50 of less than 10 µM.
In turn, `CCCCc1noc(CCC#Cc2ccccn2)n1` [Example 22, 2-(4-(3-Butyl-1,2,4-oxadiazol-5-yl)but-1-ynyl)pyridine] had a concentration for half-maximal inhibition (IC50) of less than 10 µM.
As for `Fc1cccc(Cc2noc(CCC#Cc3ccccn3)n2)c1` [Example 23, 2-(4-(3-(3-Fluorobenzyl)-1,2,4-oxadiazol-5-yl)but-1-ynyl)pyridine], the IC50 is less than 10 µM.
`COc1cccc(Cc2noc(CCC#Cc3ccccn3)n2)c1` [Example 24, 2-(4-(3-(3-Methoxybenzyl)-1,2,4-oxadiazol-5-yl)but-1-ynyl)pyridine] displayed an IC50 of less than 10 µM.
On to `Fc1ccccc1-c1noc(CCC#Cc2ccccn2)n1` [Example 25, 2-(4-(3-(2-Fluorophenyl)-1,2,4-oxadiazol-5-yl)but-1-ynyl)pyridine], for which the IC50 was less than 0.5 µM.
`Fc1cccc(-c2noc(CCC#Cc3ccccn3)n2)c1` [Example 26, 2-(4-(3-(3-Fluorophenyl)-1,2,4-oxadiazol-5-yl)but-1-ynyl)pyridine] registered an IC50 of less than 10 µM.
`Cc1ccc2oc(CCC#Cc3ccccn3)nc2c1` [Example 28, 5-Methyl-(2-(4-pyridin-2-yl)but-3-ynyl)benzo[d]oxazole] yielded an IC50 of less than 10 µM.
In turn, `Cc1ccc2nc(CCC#Cc3ccccn3)oc2c1` [Example 29, 6-Methyl-(2-(4-pyridin-2-yl)but-3-ynyl)benzo[d]oxazole] came in with an IC50 of less than 10 µM.
Compound `Cc1cccc2oc(CCC#Cc3ccccn3)nc12` [Example 30, 4-Methyl-(2-(4-pyridin-2-yl)but-3-ynyl)benzo[d]oxazole] showed an IC50 of less than 10 µM.
With `Cc1nc(C#CCCc2nc3ccccc3o2)cs1` [Example 31, 2-(4-(2-Methylthiazol-4-yl)but-3-ynyl)benzo[d]oxazole], the half-inhibitory concentration (IC50) is less than 0.05 µM.
For `C(#Cc1ccccn1)CCc1cn2ccccc2n1` [Example 33, 2-(4-(Pyridin-2-yl)but-3-ynyl)-imidazo[1,2-a]pyridine] the value was less than 0.05 µM; for `COc1ccccc1-c1noc(CCC#Cc2ccccn2)n1` [Example 40, 2-(4-(3-(2-Methoxyphenyl)-1,2,4-oxadiazol-5-yl)but-1-ynyl)pyridine], less than 10 µM; for `COc1cccc(-c2noc(CCC#Cc3ccccn3)n2)c1` [Example 41, 2-(4-(3-(3-Methoxyphenyl)-1,2,4-oxadiazol-5-yl)but-1-ynyl)pyridine], less than 10 µM.
The compound `COc1ccc(-c2noc(CCC#Cc3ccccn3)n2)cc1` [Example 42, 2-(4-(3-(4-Methoxyphenyl)-1,2,4-oxadiazol-5-yl)but-1-ynyl)pyridine] yielded an IC50 of less than 10 µM.
The compound `Cc1cccc(-c2noc(CCC#Cc3ccccn3)n2)c1` [Example 43, 2-(4-(3-m-Tolyl-1,2,4-oxadiazol-5-yl)but-1-ynyl)pyridine] registered an IC50 of less than 10 µM.
Compound `Cc1ccc(-c2noc(CCC#Cc3ccccn3)n2)cc1` [Example 44, 2-(4-(3-p-Tolyl-1,2,4-oxadiazol-5-yl)but-1-ynyl)pyridine] came in with an IC50 of less than 10 µM.
The compound `Clc1ccccc1-c1noc(CCC#Cc2ccccn2)n1` [Example 45, 2-(4-(3-(2-Chlorophenyl)-1,2,4-oxadiazol-5-yl)but-1-ynyl)pyridine] yielded an IC50 of less than 10 µM.
In turn, `Clc1cccc(-c2noc(CCC#Cc3ccccn3)n2)c1` [Example 46, 2-(4-(3-(3-Chlorophenyl)-1,2,4-oxadiazol-5-yl)but-1-ynyl)pyridine] registered an IC50 of less than 10 µM.
Take `Cc1cccc(C)c1-c1noc(CCC#Cc2ccccn2)n1` [Example 48, 2-(4-(3-(2,6-Dimethylphenyl)-1,2,4-oxadiazol-5-yl)but-1-ynyl)pyridine]: the IC50 is less than 0.5 µM.
`FC(F)(F)c1ccccc1-c1noc(CCC#Cc2ccccn2)n1` [Example 49] showed an IC50 of less than 10 µM.
The value for `C(#Cc1ccccn1)CCc1nc(-c2cccc3ccccc23)no1` [Example 50, 2-(4-(3-(Naphthalen-1-yl)-1,2,4-oxadiazol-5-yl)but-1-ynyl)pyridine] was less than 10 µM; that for `Cc1cccc(-c2noc(CCC#Cc3ccccn3)n2)c1C` [Example 52, 2-(4-(3-(2,3-Dimethylphenyl)-1,2,4-oxadiazol-5-yl)but-1-ynyl)pyridine] was less than 10 µM; that for `Clc1ccc(Cl)c(-c2noc(CCC#Cc3ccccn3)n2)c1` [Example 53, 2-(4-(3-(2,5-Dichlorophenyl)-1,2,4-oxadiazol-5-yl)but-1-ynyl)pyridine] was less than 10 µM.
Consider `Cc1ccc(C)c(-c2noc(CCC#Cc3ccccn3)n2)c1` [Example 54, 2-(4-(3-(2,5-Dimethylphenyl)-1,2,4-oxadiazol-5-yl)but-1-ynyl)pyridine], for which the concentration for half-maximal inhibition (IC50) is less than 10 µM.
The value for `Clc1cccc(Cl)c1-c1noc(CCC#Cc2ccccn2)n1` [Example 55, 2-(4-(3-(2,6-Dichlorophenyl)-1,2,4-oxadiazol-5-yl)but-1-ynyl)pyridine] was less than 10 µM.
On to `Clc1cccc(-c2noc(CCC#Cc3ccccn3)n2)c1Cl` [Example 56, 2-(4-(3-(2,3-Dichlorophenyl)-1,2,4-oxadiazol-5-yl)but-1-ynyl)pyridine], for which the IC50 is less than 10 µM.
As to `Cc1cccc(Cl)c1-c1noc(CCC#Cc2ccccn2)n1` [Example 58, 2-(4-(3-(2-Chloro-6-methylphenyl)-1,2,4-oxadiazol-5-yl)but-1-ynyl)pyridine], the IC50 was less than 10 µM.
